The results in this text go back to a melting point compilation (Tetko et al.; mined from patent text by program, amines drawn as free bases though some values may be those of a salt).

Bounds are passed on as bounds.

For `C=CS(=O)(=O)Nc1cccc(Nc2nc(N[C@H](C)C(C)(C)C)c3nc[nH]c3n2)c1`, the melting point (usually the temperature of the solid-liquid transition) is 133 to 136 °C.
The figure for `Cc1cn(-c2ncccn2)cc1C(=O)NC(=N)N` is 208 °C.
The compound `CC(=O)OC1C=CC2(C)C(=CCC3C2CCC2(C)C(C(C)CCCC(C)C)CCC32)C1` (configuration not stated) displayed a melting point of 73 to 75 °C.
The value for `CCOC(=O)CC(=O)N(C)c1ccc(Cl)cc1N` was 112 to 114 °C; that for `CCN(CC)CCNC(=O)c1cccc2cc3c(I)cccc3nc12` was 78 to 80 °C; that for `N#Cc1cccc(-c2ccc3c(c2)C2(CCCCC2)C(=NO)N3)c1` was 198 to 200 °C.
The value for `CCOC(=O)c1[nH]c2cc(Cl)cc(Cl)c2c1N(Cc1ccccc1)C(=O)c1ccccc1` was 174 to 175 °C; that for `C=CCNC(=O)CCCC(=O)O` was 35.1 °C.
The figure for `CCCN1Cc2cc(Oc3cccc(NCc4c(C)cc(C)cc4C)c3)ccc2N=C1N` is 238 °C.
Compound `CN(C)c1ccc(C(=O)c2ccc(OCCO)cc2)cc1` had a melting point of 142 to 143 °C.
The value for `CC(C)OC(=O)c1ccccc1C(=O)O` was 73 to 77 °C.
Regarding `CCOCCn1cc2c(C3C(=O)Nc4ccc(Cl)cc43)nc(NCCc3cccnc3)nc2n1` (configuration not stated), the melting point lay within 224 to 226 °C.
The figure for `CN1c2ccccc2C(C)(C)C1CC#N` (configuration not stated) is 74 to 76 °C.
The compound `COc1ccc(OC2COc3ccc(OCc4nc5cc(F)ccc5s4)cc3C2O)cc1` (configuration not stated) came in with a melting point of 180 to 181 °C.
The value for `CCCCN1CCSC1S(=O)(=O)N=NC(=O)Nc1nc(OC)cc(OC)n1` (configuration not stated) was 139 to 140 °C.
`O=C(O)Cc1cc(-c2ccccc2)sc1NC(=O)c1ccccc1` showed a melting point of 121 to 122 °C.
The figure for `CN(C(=O)NC(=O)c1ccccc1)C(=O)Nc1nc(C(Cl)(Cl)Cl)ns1` is 70 °C; for `CN(C(=O)CCCOc1ccc([N+](=O)[O-])c(C=O)c1)C1CCCCC1` it is 98 to 100 °C; for `CN1CN(c2ccccc2)c2ncccc2C1=O` it is 140 to 141 °C.
The figure for `N#Cc1ccccc1N1CCN(Cc2cn3cc(Cl)ccc3n2)CC1` is 167 to 169 °C; for `COc1ccc(CNC=C2C(=O)Nc3cc(OC)c(OC)cc32)cc1OC` it is 198 to 200 °C; for `Cc1ccc(S(=O)(=O)c2ccc3c(c2)C(O)C(Br)C(C)(C)O3)cc1` (configuration not stated) it is 141 to 142 °C.
The value for `CC(=O)Oc1c(C(C)C)c(-c2ccc(F)cc2)c(O)c(C(C)C)c1C(C)C` was 174 to 177 °C; that for `COc1cc(N(C)C)ccc1C=Nc1cc(Cl)c(N=CN(C)C)c(Cl)c1` was 137 to 139 °C; that for `NC(=O)C1CCN(c2ccncc2Cl)CC1` was 210 to 212 °C.
Turning to `COCCOc1ccc(CSc2cnn(C(C)(C)C)c(=O)c2Cl)cc1`, the melting point fell in the range of 106 to 107 °C.
The value for `CC(C)Cc1nc2ccc(O)cc2c(-c2ccccc2F)c1C#N` was 256 to 257 °C; that for `O=C(Nc1ccc(Cl)c(Cl)c1)N(O)Cc1ccccc1` was 157 °C.
The figure for `CN(C)CCCNCC(O)C(O)C(O)C(O)CO` (configuration not stated) is 107 to 108 °C; for `Nc1cc(C(c2cc(F)ccc2F)S(=O)(=O)c2ccc(Cl)nc2)c(Cl)cn1` (configuration not stated) it is 157 to 158 °C.
In turn, `O=C1C[C@H]2CN(C(=O)c3ccc(NC(=O)c4ccccc4-c4ccccc4)cc3)c3ccccc3C(=O)N2C1` gave a melting point of 159 to 169 °C.
The value for `COc1ccc2c(c1OC)C(=Cc1ccccc1)c1ccccc1-2` was 210 °C; that for `C[C@H](CS(C)(=O)=O)Nc1n[nH]c2nc(Oc3ccc(F)cc3F)ncc12` was 178 to 179 °C; that for `COC(=O)C(C)(C)CCCOc1cc(C)c(OC(=O)Nc2c(C(C)C)cccc2C(C)C)cc1C` was 111 to 112 °C.
The figure for `CCCC(=O)c1cnc2ccsc2c1Nc1ccccc1C(C)C` is 118 to 120 °C.
The figure for `COC(C)=CC(=O)NC1CCCCCCC1` is 116 °C.
Compound `Cc1c(CO)ncn1CCCNC(C)(C)c1ccc(Cl)cc1` displayed a melting point of 97 to 99 °C.
The value for `CCc1nc2c(cnn2CC)c(NC2CCOCC2)c1CNC(=O)c1cccc(C(=O)NCc2ccc(C)c(-c3cccc(CN4CC5CC4CN5)c3)c2)c1` (configuration not stated) was 138 to 140 °C; that for `O=C(Nc1ccc(-c2cnc(-c3cccc(NC(=O)c4ccccn4)c3)[nH]2)cc1)c1ccccn1` was 205 to 208 °C.
The value for `COc1ccc(N2CCN(CC(O)COc3cccc4cc(C(C)=O)oc34)CC2)cc1` (configuration not stated) was 173 to 175 °C.
`CCCCCCS(=O)(=O)Cc1ccc(C(C)(C)NC(=O)OC)cc1` had a melting point of 104 to 105 °C.
On to `CCN(CC)CCC(=O)NC1c2ccccc2-c2[nH]c(=O)c3nccn3c21` (configuration not stated), for which the melting point is 260 °C.
The value for `CC(=O)CN1CCc2ccc(C(=O)CCC(=O)N3CCC(c4ccc(Cl)cc4)CC3)cc2CC1` was 119 to 120 °C; that for `Nc1c(Cl)cc2c3c(cccc13)C(=O)N(O)C2=O` was 354 to 359 °C; that for `CC(C)(C)OC(=O)[C@@H]1CN(Cc2ccccc2)C(=O)N1` was 96 to 98 °C.
The figure for `N#Cc1cccc(OCc2ccccc2)c1N` is 102 to 103 °C; for `O=c1nc2ccccc2c2cc(CO)[nH]n12` it is 225 to 230 °C; for `CCCCCCCCCc1cc(C=CC(=O)N2CCN(c3ccc(NC(=N)c4cccs4)cc3)CC2)cc(CCCCCCCCC)c1O` it is 103 to 105 °C.
The value for `Cc1ccccc1OCCC(=O)N(C)c1ccccc1` was 76 °C.
With `Cc1noc(NS(=O)(=O)c2ccccc2-c2ccc(-c3ncco3)cc2Cn2cccn2)c1C`, the melting point was in the range of 140 to 146 °C.
The value for `CSc1cn(C)c2cc(Cl)sc2c1=O` was 231 to 234 °C; that for `CC1(C)Oc2ccc(S(=O)(=O)c3ccccc3)cc2[C@@H](O)[C@@H]1Br` (relative stereo) was 103 to 105 °C; that for `CC(C)c1c(-c2cc(C(F)(F)F)cc(C(F)(F)F)c2)ccc2nc(N)nc(N)c12` was 212 to 214 °C.
The figure for `CC1=C(S(C)(=O)=O)C(c2ccccc2[N+](=O)[O-])C(C(=O)OC2CCCC2)=C(N=CN(C)C)N1` (configuration not stated) is 175 °C; for `CCCOc1ccc(C(=O)CBr)cc1-c1nc2c(CCC)nn(C)c2c(=O)[nH]1` it is 136 to 137 °C.
The value for `CCC(CC)Nc1c(NCc2cc(C)cc(C#N)c2)c(=O)c1=O` was 248 to 250 °C; that for `COCc1cc(-c2ncc3[nH]c4cccc(Cc5ccccc5Cl)c4c3c2COC)no1` was 178 to 180 °C; that for `O=C1[C@H]2CCC[C@H]2N(C(=O)CCCCl)c2ccccc2N1Cc1ccccc1` (relative stereo) was 169 to 170 °C.
On to `CN(C)C(=O)CCSC(SCCC(=O)O)c1cccc(C=Cc2ccc3ccc(Cl)cc3n2)c1` (configuration not stated), for which the melting point is 153 to 155 °C.
The figure for `N#Cc1ccc2c(c1)CC[C@@H](c1ccc(F)cc1)[C@H]2Cn1cncn1` (relative stereo) is 149 °C; for `Cc1cc(C)c2c(c1)C=C(/C=C/C=C/C=C/C(=O)O)CO2` it is 208 to 210 °C.
The figure for `COC(=O)C(O)C(NCc1ccccc1)c1ccc(Cl)cc1` (configuration not stated) is 106 to 108 °C.
The value for `COc1cc(C(=O)Cl)ccc1S(=O)(=O)Cl` was 86 to 88 °C.
Regarding `CC1(O)OC(=O)C(c2c(F)cc(F)cc2F)=C1c1ccc2ccccc2c1` (configuration not stated), the melting point was 164 to 165 °C.
The value for `CC(=O)Nc1ccccc1-n1cc2c(c1-c1ccccc1)c(=O)n(C)c(=O)n2C` was more than 250 °C; that for `Cc1nc(N2CCc3ccccc3CC2)c(C#N)c(=O)n1CC#N` was more than 200 °C.
The value for `CNc1nc(-c2ccccc2)c(-c2ccc(=O)n(C(C)C)n2)s1` was 234 to 236 °C.
The figure for `O=S1(=O)N=C2CCCN2c2ccc(Oc3cccc(-c4ccoc4)c3)cc21` is 128 to 132 °C; for `Brc1ccc2c(C3CCNCC3)n[nH]c2c1` it is 163 to 165 °C.
As for `Cc1cccc(NC(=O)NCC(=O)N(CC(=O)N(C)c2ccc(F)c(F)c2)c2ccccc2)c1`, the melting point came to 163 °C.
The figure for `COc1ccc(-c2ccccc2-c2ccc(S(N)(=O)=O)cc2)cc1Cl` is 180 °C; for `CCCC(=O)Nc1n[nH]c2c(F)c(F)ccc12` it is 191 °C.
The figure for `CC(=O)c1cn(-c2c(Cl)cc(C(F)(F)F)cc2Cl)nc1C#N` is 166 to 168 °C; for `C=Cc1ccc(C=O)cc1` it is 65.9 °C.
Compound `COC(=O)Cc1cccc(CC(=O)OC)c1[N+](=O)[O-]` displayed a melting point of 144 to 145 °C.
`CC(C)(C)c1cc(Br)c(O)c(C#N)c1` showed a melting point of 69 to 71 °C.
The value for `CC(=O)NCCC1CCc2ccn3nc(-c4ccccc4)cc3c21` (configuration not stated) was 159 to 160 °C; that for `CC(OCc1cc2nc(C(F)(F)F)ccc2n1S(=O)(=O)c1ccc2ncsc2c1)C(=O)O` (configuration not stated) was 124 °C; that for `COc1c(C(=O)NCCN2CCN(c3cccc(Cl)c3Cl)CC2)cc(Br)c2ccccc12` was 137 °C.
With `COc1csc(C(=O)C2C(=O)N(C(N)=O)c3ccc(Cl)cc32)c1` (configuration not stated), the melting point fell in the range of 221 to 223 °C.
The figure for `COc1ccccc1C=CC(=O)C1=C(O)C(=C(C)Nc2ccccc2N)C(=O)OC1=O` is 148 to 150 °C; for `c1csc(Nc2ccnc3cn[nH]c23)c1` it is 255 to 259 °C; for `O=C(NCC/C=C\CCCNC(=O)c1ccc(OC(F)(F)F)cc1)c1ccc(OC(F)(F)F)cc1` it is 111 to 113 °C.
`CC(C)(C)Nc1c([N+](=O)[O-])cc([N+](=O)[O-])c2nc(C(F)F)[nH]c12` gave a melting point of 199 to 201 °C.
The figure for `Cc1c(CC2=C(O)CCC2=O)ccc2ccccc12` is 226 to 228 °C; for `CCN1c2ncccc2C(=O)N(C)c2ccc(-c3cc[nH]c3C(C)=O)nc21` it is more than 80 °C.
The value for `CCCCN(c1cccc(-c2ccnc3c([N+](=O)[O-])cnn23)c1)S(=O)(=O)c1ccccc1` was 159 to 160 °C.
